Assay results from the supplement of paper PMC10307832.

Columns and labels:
Experiment in all cases: relative viability (nuclei count vs DMSO), 5 days (fraction); higher = more cells survive
[1] = compound: CCN(CCO)CCCC(C)Nc1ccnc2cc(Cl)ccc12 [Hydroxychloroquine] + C[C@]1(O)C[C@@H](c2nc(-c3ccc4ccc(-c5ccccc5)nc4c3)c3c(N)nccn32)C1 [Linsitinib] (partner 1 µM)
Summary of the method: (§1)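 One day after seeding in 1536-well plates, lung cancer cell lines were dosed by pin tool. Dosing was either single-drug or a fixed anchor-drug dose plus five library-drug doses (not always all listed) in √10 steps. After 5 days, nuclei were stained in one fix-and-stain step and counted on 4× images, and relative viability is the nuclei count of treated wells over that of vehicle wells, given as the median of duplicate plates.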

[2] = compound: CCN(CCO)CCCC(C)Nc1ccnc2cc(Cl)ccc12 [Hydroxychloroquine] + CC1(C)CCC(c2ccc(Cl)cc2)=C(CN2CCN(c3ccc(C(=O)NS(=O)(=O)c4ccc(N[C@H](CCN5CCOCC5)CSc5ccccc5)c(S(=O)(=O)C(F)(F)F)c4)cc3)CC2)C1 [Navitoclax] (partner 0.5 µM)
Summary of the method: as §1

[3] = compound: CCN(CCO)CCCC(C)Nc1ccnc2cc(Cl)ccc12 [Hydroxychloroquine] + COc1cc2c(Oc3ccc(NC(=O)C4(C(=O)Nc5ccc(F)cc5)CC4)cc3F)ccnc2cc1OCCCN1CCOCC1 [Foretinib] (partner 0.25 µM)
Summary of the method: as §1

[4] = compound: CCN(CCO)CCCC(C)Nc1ccnc2cc(Cl)ccc12 [Hydroxychloroquine] + CCNC(=O)c1noc(-c2cc(C(C)C)c(O)cc2O)c1-c1ccc(CN2CCOCC2)cc1 [Luminespib] (partner 0.01 µM)
Summary of the method: as §1

| Cell Line | relative viability ([1]; first compound 0.5 µM) | relative viability ([1]; first compound 1.581 µM) | relative viability ([1]; first compound 5 µM) | relative viability ([1]; first compound 15.81 µM) | relative viability ([1]; first compound 50 µM) | relative viability ([2]; first compound 0.5 µM) | relative viability ([2]; first compound 1.581 µM) | relative viability ([2]; first compound 5 µM) | relative viability ([2]; first compound 15.81 µM) | relative viability ([2]; first compound 50 µM) | relative viability ([3]; first compound 0.5 µM) | relative viability ([3]; first compound 1.581 µM) | relative viability ([3]; first compound 5 µM) | relative viability ([3]; first compound 15.81 µM) | relative viability ([3]; first compound 50 µM) | relative viability ([4]; first compound 0.5 µM) | relative viability ([4]; first compound 1.581 µM) | relative viability ([4]; first compound 5 µM) | relative viability ([4]; first compound 15.81 µM) | relative viability ([4]; first compound 50 µM) |
| --- | --- | --- | --- | --- | --- | --- | --- | --- | --- | --- | --- | --- | --- | --- | --- | --- | --- | --- | --- | --- |
| HCC-78 | 0.49 | 0.728 | 0.304 | 0.516 | 0.455 | 0.865 | 0.82 | 0.993 | 0.768 | 0.777 | 0.602 | 0.498 | 0.482 | 0.488 | 0.553 | – | – | – | – | – |
| HCC-366 | 0.573 | 0.769 | 0.613 | 0.627 | 0.796 | 1.09 | 1.04 | 0.963 | 1.07 | 1.16 | 0.938 | 0.891 | 0.902 | 0.945 | 0.923 | – | – | – | – | – |
| HCC-827 | 1.01 | 0.927 | 0.922 | 0.956 | 0.977 | 0.941 | 1.02 | 1.03 | 1.1 | 1.02 | 1.13 | 0.956 | 1.05 | 1.2 | 1.08 | 0.781 | 0.629 | 0.686 | 0.522 | 0.85 |
| HOP-62 | 0.95 | 0.873 | 1.15 | 0.868 | 0.987 | 0.962 | 1.13 | 1.1 | 1.03 | 1.13 | 1.15 | 1.24 | 1.14 | 1.27 | 1.23 | 1 | 0.987 | 1.01 | 1.09 | 1 |
| IA-LM | 0.569 | 0.281 | 0.66 | 0.383 | 0.695 | 0.764 | 0.79 | 0.832 | 0.798 | 0.847 | 1.15 | 1.31 | 1.12 | 1.26 | 1.27 | – | – | – | – | – |
| LC-2-ad | 0.92 | 0.782 | 0.93 | 0.863 | 0.818 | 0.337 | 0.332 | 0.478 | 0.416 | 0.405 | 0.956 | 0.895 | 0.895 | 0.921 | 1.05 | 1.19 | 1.02 | 0.906 | 1.01 | 0.969 |
| LCLC-97TM1 | 0.2 | 0.189 | 0.215 | 0.172 | 0.173 | 0.432 | 0.619 | 0.656 | 0.517 | 0.397 | 0.989 | 0.934 | 0.979 | 0.983 | 1.01 | 0.876 | 0.833 | 0.787 | 0.768 | 0.867 |
| LCLC-103H | 1.16 | 1.08 | 1.07 | 1.01 | 1.16 | – | – | – | – | – | 0.776 | 0.707 | 0.848 | 0.893 | 0.887 | 0.983 | 0.921 | 1.05 | 1.11 | 1.1 |
| LK-2 | 0.473 | 0.438 | 0.843 | 0.607 | 0.696 | 0.777 | 0.763 | 0.809 | 0.914 | 0.632 | 1.31 | 1.41 | – | 1.28 | 0.955 | 0.192 | 0.171 | – | 0.193 | 0.224 |
